The target of this assay is Core antigen (Hepatitis B virus) (UniProt Q03732). As to the kind of experiment: Inhibition of Hepatitis B virus capsid formation at 100 uM treated during cell-free wild type HBV Cp synthesis using wheat germ lysates and HBV Cp RNA by Native capsid assay based western blot analysis. The format is subcellular.

Active and inactive are the calls of the source. How the calls were made is not given here. Residues, ends and D or L forms follow the SMILES beside them.

Chain of Core antigen (Hepatitis B virus) (Q03732 as listed by the source): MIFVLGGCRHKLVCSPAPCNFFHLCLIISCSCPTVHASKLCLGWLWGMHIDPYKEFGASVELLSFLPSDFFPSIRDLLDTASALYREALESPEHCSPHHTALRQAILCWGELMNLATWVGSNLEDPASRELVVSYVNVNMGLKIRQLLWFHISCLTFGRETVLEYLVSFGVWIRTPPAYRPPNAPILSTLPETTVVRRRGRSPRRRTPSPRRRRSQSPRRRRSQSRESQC

Regarding `CC[C@H](C)[C@H](NC(=O)[C@H](C)NC(=O)[C@H](CCC(N)=O)NC(=O)[C@@H]1CCCN1)C(=O)N[C@@H](CC(C)C)C(=O)N[C@@H](CS)C(=O)N[C@@H](Cc1c[nH]c2ccccc12)C(=O)NCC(=O)N[C@@H](CCC(=O)O)C(=O)N[C@@H](CC(C)C)C(=O)N[C@@H](CCSC)C(=O)N[C@@H](CC(N)=O)C(=O)N[C@@H](CC(C)C)C(=O)N[C@@H](C)C(=O)N[C@H](C(N)=O)[C@@H](C)O`, the inhibition result was “inactive”. Turning to `CC[C@H](C)[C@H](N)C(=O)N[C@@H](CCCNC(=N)N)C(=O)N[C@H](C(=O)N1CCC[C@H]1C(=O)N1CCC[C@H]1C(=O)N[C@@H](C)C(=O)N[C@@H](Cc1ccc(O)cc1)C(=O)N[C@@H](CCCNC(=N)N)C(=O)N1CCC[C@H]1C(=O)N1CCC[C@H]1C(=O)N[C@@H](CC(N)=O)C(=O)N[C@@H](C)C(=O)N1CCC[C@H]1C(=O)N[C@H](C(=O)N[C@@H](CC(C)C)C(N)=O)[C@@H](C)CC)[C@@H](C)O` (H-IRTPPAYRPPNAPIL-NH2), the inhibition result was “inactive”.

Turning to `CC(=O)N[C@@H](CC(C)C)C(=O)N[C@@H](CCC(=O)O)C(=O)N[C@@H](CC(=O)O)C(=O)N1CCC[C@H]1C(=O)N[C@@H](C)C(=O)N[C@@H](CO)C(=O)N[C@@H](CCCNC(=N)N)C(=O)N[C@@H](CCC(=O)O)C(=O)N[C@@H](CC(C)C)C(=O)N[C@H](C(=O)N[C@H](C(=O)N[C@@H](CO)C(=O)N[C@@H](Cc1ccc(O)cc1)C(=O)N[C@H](C(=O)N[C@@H](CC(N)=O)C(N)=O)C(C)C)C(C)C)C(C)C`, the inhibition result is “inactive”. For `CSCC[C@H](NC(=O)[C@H](CC(N)=O)NC(=O)[C@@H](NC(=O)[C@H](CC(N)=O)NC(=O)[C@@H](NC(=O)[C@H](Cc1ccc(O)cc1)NC(=O)[C@H](CO)NC(=O)[C@@H](NC(C)=O)C(C)C)C(C)C)C(C)C)C(=O)NCC(=O)N[C@@H](CC(C)C)C(=O)N[C@@H](CCCCN)C(=O)N[C@@H](Cc1ccccc1)C(=O)N[C@@H](CCCNC(=N)N)C(=O)N[C@@H](CCC(N)=O)C(=O)N[C@@H](CC(C)C)C(N)=O` (Ac-VSYVNVNMGLKFRQL-NH2), the inhibition result is “inactive”. For `CSCC[C@H](NC(=O)[C@H](CC(C)C)NC(=O)[C@H](CCC(=O)O)NC(=O)CNC(=O)[C@H](Cc1c[nH]c2ccccc12)NC(=O)[C@@H](N)CS)C(=O)N[C@@H](CC(N)=O)C(=O)N[C@@H](CC(C)C)C(=O)N[C@@H](C)C(=O)N[C@H](C(=O)N[C@@H](Cc1c[nH]c2ccccc12)C(=O)N[C@H](C(=O)NCC(=O)N[C@@H](CO)C(=O)N[C@@H](CC(N)=O)C(N)=O)C(C)C)[C@@H](C)O`, the inhibition result is “inactive”. For `CC[C@H](C)[C@H](NC(=O)[C@H](Cc1c[nH]cn1)NC(=O)[C@H](Cc1ccccc1)NC(=O)[C@H](Cc1c[nH]c2ccccc12)NC(=O)[C@H](CC(C)C)NC(=O)[C@H](CC(C)C)NC(=O)[C@H](CCC(N)=O)NC(=O)[C@H](CCCNC(=N)N)NC(=O)[C@H](Cc1ccccc1)NC(=O)[C@@H](N)CCCCN)C(=O)N[C@@H](CO)C(=O)N[C@@H](CS)C(=O)N[C@@H](CC(C)C)C(=O)N[C@H](C(=O)N[C@@H](Cc1ccccc1)C(N)=O)[C@@H](C)O` (H-KFRQLLWFHISCLTF-NH2), the inhibition result was “inactive”. Then `CC(=O)N[C@@H](C)C(=O)N[C@@H](CC(C)C)C(=O)N[C@@H](CCC(=O)O)C(=O)N[C@@H](CO)C(=O)N1CCC[C@H]1C(=O)N[C@@H](CCC(=O)O)C(=O)N[C@@H](Cc1c[nH]cn1)C(=O)N[C@@H](CS)C(=O)N[C@@H](CO)C(=O)N1CCC[C@H]1C(=O)N[C@@H](Cc1c[nH]cn1)C(=O)N[C@@H](Cc1c[nH]cn1)C(=O)N[C@H](C(=O)N[C@@H](C)C(=O)N[C@@H](CC(C)C)C(N)=O)[C@@H](C)O` (Ac-ALESPEHCSPHHTAL-NH2), with “inactive”; and `CC[C@H](C)[C@H](NC(=O)[C@H](CC(=O)O)NC(=O)[C@H](CCSC)NC(C)=O)C(=O)N[C@@H](CC(=O)O)C(=O)N1CCC[C@H]1C(=O)N[C@@H](Cc1ccc(O)cc1)C(=O)N[C@@H](CCCCN)C(=O)N[C@@H](CCC(=O)O)C(=O)N[C@@H](Cc1ccccc1)C(=O)NCC(=O)N[C@@H](C)C(=O)N[C@@H](CO)C(=O)N[C@H](C(=O)N[C@@H](CCC(=O)O)C(=O)N[C@@H](CC(C)C)C(N)=O)C(C)C`, with “inactive”. As for `CC(C)C[C@H](NC(=O)[C@H](C)NC(=O)[C@H](CO)NC(=O)[C@H](C)NC(=O)[C@@H](NC(=O)[C@H](CC(=O)O)NC(=O)[C@@H](N)CC(C)C)[C@@H](C)O)C(=O)N[C@@H](Cc1ccc(O)cc1)C(=O)N[C@@H](CCCNC(=N)N)C(=O)N[C@@H](CCC(=O)O)C(=O)N[C@@H](C)C(=O)N[C@@H](CC(C)C)C(=O)N[C@@H](CCC(=O)O)C(=O)N[C@@H](CO)C(=O)N1CCC[C@H]1C(N)=O` (H-LDTASALYREALESP-NH2), the inhibition entry is “inactive”.

As for `N=C(N)NCCC[C@H](NC(=O)[C@@H]1CCCN1)C(=O)N[C@@H](CCCNC(=N)N)C(=O)N[C@@H](CCCNC(=N)N)C(=O)N[C@@H](CCCNC(=N)N)C(=O)N[C@@H](CO)C(=O)N[C@@H](CCC(N)=O)C(=O)N[C@@H](CO)C(=O)N[C@@H](CCCNC(=N)N)C(=O)N[C@@H](CCC(=O)O)C(=O)N[C@@H](CO)C(=O)N[C@@H](CCC(N)=O)C(=O)N[C@@H](CS)C(N)=O` (H-PRRRRSQSRESQC-NH2), the inhibition entry was “inactive”.

Take `CC(=O)N[C@@H](C)C(=O)N[C@@H](CO)C(=O)N[C@H](C(=O)N[C@@H](CCC(=O)O)C(=O)N[C@@H](CC(C)C)C(=O)N[C@@H](CC(C)C)C(=O)N[C@@H](CO)C(=O)N[C@@H](Cc1ccccc1)C(=O)N[C@@H](CC(C)C)C(=O)N1CCC[C@H]1C(=O)N[C@@H](CO)C(=O)N[C@@H](CC(=O)O)C(=O)N[C@@H](Cc1ccccc1)C(=O)N[C@@H](Cc1ccccc1)C(=O)N1CCC[C@H]1C(N)=O)C(C)C`: the inhibition result was “inactive”. On to `CC[C@H](C)[C@H](NC(=O)[C@H](Cc1c[nH]c2ccccc12)NC(=O)[C@@H](NC(=O)CNC(=O)[C@H](Cc1ccccc1)NC(=O)[C@@H](N)CO)C(C)C)C(=O)N[C@@H](CCCNC(=N)N)C(=O)N[C@H](C(=O)N1CCC[C@H]1C(=O)N1CCC[C@H]1C(=O)N[C@@H](C)C(=O)N[C@@H](Cc1ccc(O)cc1)C(=O)N[C@@H](CCCNC(=N)N)C(=O)N1CCC[C@H]1C(=O)N1CCC[C@H]1C(N)=O)[C@@H](C)O`, for which the inhibition result is “inactive”. Then `CC[C@H](C)[C@H](NC(=O)[C@@H]1CCCN1C(=O)[C@H](C)NC(=O)[C@H](CC(N)=O)NC(C)=O)C(=O)N[C@@H](CC(C)C)C(=O)N[C@@H](CO)C(=O)N[C@H](C(=O)N[C@@H](CC(C)C)C(=O)N1CCC[C@H]1C(=O)N[C@@H](CCC(=O)O)C(=O)N[C@H](C(=O)N[C@H](C(=O)N[C@H](C(=O)N[C@H](C(=O)N[C@@H](CCCNC(=N)N)C(N)=O)C(C)C)C(C)C)[C@@H](C)O)[C@@H](C)O)[C@@H](C)O`, with “inactive”; and `CC(=O)N1CCC[C@H]1C(=O)N[C@@H](CCCNC(=N)N)C(=O)N[C@@H](CCCNC(=N)N)C(=O)N[C@@H](CCCNC(=N)N)C(=O)N[C@@H](CCCNC(=N)N)C(=O)N[C@@H](CO)C(=O)N[C@@H](CCC(N)=O)C(=O)N[C@@H](CO)C(=O)N[C@@H](CCCNC(=N)N)C(=O)N[C@@H](CCC(=O)O)C(=O)N[C@@H](CO)C(=O)N[C@@H](CCC(N)=O)C(=O)N[C@@H](CS)C(N)=O` (Ac-PRRRRSQSRESQC-NH2), with “inactive”; and `CC(=O)N1CCC[C@H]1C(=O)N[C@@H](CO)C(=O)N1CCC[C@H]1C(=O)N[C@@H](CCCNC(=N)N)C(=O)N[C@@H](CCCNC(=N)N)C(=O)N[C@@H](CCCNC(=N)N)C(=O)N[C@@H](CCCNC(=N)N)C(=O)N[C@@H](CO)C(=O)N[C@@H](CCC(N)=O)C(=O)N[C@@H](CO)C(=O)N1CCC[C@H]1C(=O)N[C@@H](CCCNC(=N)N)C(=O)N[C@@H](CCCNC(=N)N)C(=O)N[C@@H](CCCNC(=N)N)C(=O)N[C@@H](CCCNC(=N)N)C(N)=O` (Ac-PSPRRRRSQSPRRRR-NH2), with “inactive”.

As to `CC(=O)N[C@@H](C)C(=O)N[C@@H](CC(C)C)C(=O)N[C@@H](Cc1ccc(O)cc1)C(=O)N[C@@H](CCCNC(=N)N)C(=O)N[C@@H](CCC(=O)O)C(=O)N[C@@H](C)C(=O)N[C@@H](CC(C)C)C(=O)N[C@@H](CCC(=O)O)C(=O)N[C@@H](CO)C(=O)N1CCC[C@H]1C(=O)N[C@@H](CCC(=O)O)C(=O)N[C@@H](Cc1c[nH]cn1)C(=O)N[C@@H](CS)C(=O)N[C@@H](CO)C(=O)N1CCC[C@H]1C(N)=O` (Ac-ALYREALESPEHCSP-NH2), the inhibition result was “inactive”. For `CC[C@H](C)[C@H](NC(=O)[C@H](Cc1c[nH]cn1)NC(=O)[C@H](Cc1ccccc1)NC(=O)[C@H](Cc1c[nH]c2ccccc12)NC(=O)[C@H](CC(C)C)NC(C)=O)C(=O)N[C@@H](CO)C(=O)N[C@@H](CS)C(=O)N[C@@H](CC(C)C)C(=O)N[C@H](C(=O)N[C@@H](Cc1ccccc1)C(=O)NCC(=O)N[C@@H](CCCNC(=N)N)C(=O)N[C@@H](CCC(=O)O)C(=O)N[C@H](C(=O)N[C@H](C(N)=O)C(C)C)[C@@H](C)O)[C@@H](C)O` (Ac-LWFHISCLTFGRETV-NH2), the inhibition result was “inactive”. As for `CC[C@H](C)[C@H](NC(=O)[C@@H]1CCCN1C(=O)[C@H](C)NC(=O)[C@H](CC(N)=O)NC(=O)[C@@H]1CCCN1C(=O)[C@@H]1CCCN1C(=O)[C@H](CCCNC(=N)N)NC(=O)[C@H](Cc1ccc(O)cc1)NC(=O)[C@H](C)NC(C)=O)C(=O)N[C@@H](CC(C)C)C(=O)N[C@@H](CO)C(=O)N[C@H](C(=O)N[C@@H](CC(C)C)C(=O)N1CCC[C@H]1C(=O)N[C@@H](CCC(=O)O)C(N)=O)[C@@H](C)O` (Ac-AYRPPNAPILSTLPE-NH2), the inhibition result was “inactive”. As to `CC(=O)N[C@@H](CO)C(=O)N[C@@H](CS)C(=O)N[C@@H](CC(C)C)C(=O)N[C@H](C(=O)N[C@@H](Cc1ccccc1)C(=O)NCC(=O)N[C@@H](CCCNC(=N)N)C(=O)N[C@@H](CCC(=O)O)C(=O)N[C@H](C(=O)N[C@H](C(=O)N[C@@H](CC(C)C)C(=O)N[C@@H](CCC(=O)O)C(=O)N[C@@H](Cc1ccc(O)cc1)C(=O)N[C@@H](CC(C)C)C(=O)N[C@H](C(N)=O)C(C)C)C(C)C)[C@@H](C)O)[C@@H](C)O` (Ac-SCLTFGRETVLEYLV-NH2), the inhibition entry is “inactive”.

For the origin of these results see ChEMBL document CHEMBL6103552, “Identification of peptide-based hepatitis B virus capsid inhibitors based on the viral core protein” (Bioorg Med Chem Lett, 2025).
